Reference: patent US20150065416A1, “NOVEL DRUG COMBINATION” (FAB PHARMA SAS, priority 2013, published 2015)

Experiments:
A. baumannii isolates [1] = assay: Checkerboard testing (compound (I)/antibacterial agent interaction, FIC index); format: cell-based, Acinetobacter baumannii
Protocol: Checkerboard interaction studies were performed using 5 isolates from each of the sub-groups and time kill studies were performed using 3 isolates from each sub-group.
Checkerboards (20 isolates, 5 per sub-group) were prepared so as to contain multiple concentrations of compound (I) with different additional antibacterial agents (amikacin, gentamicin, colistin, meropenem and tobramycin) as follows:
Serial two-fold dilutions of the antimicrobial agents alone or in combination in wells of 96 well microtiter plates were inoculated with the appropriate inoculum so that each well contained approximately 4-5×10^4 CFU/ml. Plates were incubated at 35° C. for 16-20 hours. Combination concentrations were tested between 0.25×MIC and 2×MIC. Growth and sterility controls were also included in each plate.
Synergy, indifference and antagonism were calculated based upon the use of the fractional inhibitory concentration (FIC) indices as described by Pillai, Moellering & Eliopoulos (2005) whereby:
Synergism=FIC index of ≦0.5 Indifference=FIC index >1 but ≦4 Additivity >0.5 to 1 Antagonism=FIC index of >4
Checkerboard studies were carried out as described in General Procedures using twenty different A. baumannii isolates with 5 per sub-group of: susceptible, amikacin-resistant, colistin-resistant and meropenem-resistant.

A. baumannii isolates [2] = assay: Time kill study (Example 4); format: cell-based, Acinetobacter baumannii; conditions: for Time to kill 99.9%: alone; for MIC: Acinetobacter baumannii, read-out: MIC
Protocol: A total of 12 isolates were tested (three per sub-group either susceptible, meropenem-resistant, amikacin-resistant or colistin-resistant). Two combinations were tested per isolate. Time-kill kinetics were performed by testing compound (I) and an additional antibacterial agent (amikacin, colistin and meropenem) individually at 1× and 4× the corresponding MIC of each antibacterial agent. […] Samples were taken at 0, 2, 4, 8 and 24 hours in order to determine colony forming units (CFU/mL).
Time-kill studies were carried out as described in General Procedures using combinations of compound (I) with amikacin, meropenem and colistin, respectively.

A. baumannii SAN strain = assay: Bactericidal activity (time kill kinetics, Example 5); format: cell-based, Acinetobacter baumannii; conditions: alone at 2×MIC
Protocol: In addition, a second set of experiments involved the testing of compound(I)/additional antibacterial agent combinations of 2×/2×MIC. Samples were taken at 0, 3, 6 and 24 hours in order to determine colony forming units (CFU/mL).

A. baumannii RCH-69 = assay: Mouse model of A. baumannii pneumonia, Study 3: survival; format: in vivo, Acinetobacter baumannii; conditions: neutropenic C3H/HeN mice, q 8 h I.P. 3 days, compound (I) 200 mg/kg, meropenem 50 mg/kg, colistin 125000 Ul/kg
Protocol: The bacterial inoculum was prepared in order to obtain a suspension containing 10^8 CFU/mL of Acinetobacter baumannii in saline.
Experimentations were performed with six-week old female C3H/HeN mice (18-20 g, Breeding Centre JANVIER (Ile saint Genest Mayenne 53)) because of their particular susceptibility to Acinetobacter baumannii and the reproducibility of the results (inbreeding in the breed). Each mouse was individually marked and housed in cages containing five animals/cage under ventilated and controlled (temperature and humidity) atmosphere.
The mice were rendered transiently neutropenic by 2 intra-peritoneal (IP) injections of 150 μL of cyclophosphamide (Endoxan® 150 mg/kg) 4 (D-4) and 3 (D-3) days before the Acinetobacter baumannii inoculation (Day 0). This transient immunosuppression was sufficient to facilitate the development of the A. baumannii pneumonia while allowing the recovery of the neutrophil influx 2 (Day 2) days after inoculation in order to avoid or limit a systemic bacterial dissemination.
Mice were anesthetized by a mixture of oxygen and isoflurane. The bacterial inoculation was performed on Day 0 by intra-tracheal installation using an endotracheal catheter (50 μl of the suspension, thus 5.106 CFU). The positioning of the catheter in the trachea (instead of in the oesophagus) was checked by a “ring test”. The bacterial count in lungs was checked for all study groups by sacrificing one mouse immediately after inoculation.
Survival observations were assessed twice daily, up to 4 days post infection. The survival rates were compared with the Chi-square test or the Fisher exact test as appropriate. The survival curves were compared by the Kaplan-Meier method.
The aim of this experiment was to assess the survival rate of transiently neutropenic female C3H/HeN mice administered, 3 hours post-inoculation of A. baumannii RCH-69 via intra-tracheal route, with a compound (I) via intra-peritoneal route at 200 mg/kg 3 times daily (every 8 hours) for 3 days alone and in combination with meropenem at 50 mg/kg 3 times daily (every 8 hours) for 3 days or with colistin at 125000 UI/kg 3 times daily (every 8 hours) for 3 days. 85 mice were allocated into 6 groups as follows.
Six vials of 8 mL each containing 94.2 mg/mL of compound (I) and 47.1 mg/mL of PVP 12 PF (Kollidon 12 PF) were prepared and stored between +2° C. and +8° C. Following storage, each vial was homogenized by manual shaking and diluted by 2-fold in 13.72 mg/mL NaCl aqueous solution in order to obtain a 47.1 mg of compound (I)/mL isotonic suspension. In Groups 2, 4 and 5, mice were administered with 100 μL of the 47.1 mg/mL compound (I) suspension.

[3] = 24 h after RCH strain infection

SMILES: CCc1cc(O)c(Oc2ccc(C(N)=O)cc2F)cc1F [compound (I), 4-(4-ethyl-5-fluoro-2-hydroxyphenoxy)-3-fluorobenzamide]
- MIC (A. baumannii isolates [1]; A. baumannii 441142, colistin-resistant): 2 µg/mL
- MIC (A. baumannii isolates [1]; A. baumannii 441160, colistin-resistant): 4 µg/mL
- MIC (A. baumannii isolates [1]; A. baumannii 463996, colistin-resistant): 2 µg/mL
- MIC (A. baumannii isolates [1]; A. baumannii 466936, colistin-resistant): 16 µg/mL
- MIC (A. baumannii isolates [1]; A. baumannii 618649, meropenem-resistant): 4 µg/mL
- MIC (A. baumannii isolates [1]; A. baumannii 638115, amikacin-resistant): 8 µg/mL
- MIC (A. baumannii isolates [1]; A. baumannii 655932, amikacin-resistant): 2 µg/mL
- MIC (A. baumannii isolates [1]; A. baumannii 661954, amikacin-resistant): 8 µg/mL
- MIC (A. baumannii isolates [1]; A. baumannii 667848, meropenem-resistant): 8 µg/mL
- MIC (A. baumannii isolates [1]; A. baumannii 670348, susceptible): 4 µg/mL
- MIC (A. baumannii isolates [1]; A. baumannii 671050, meropenem-resistant): 8 µg/mL
- MIC (A. baumannii isolates [1]; A. baumannii 672190, susceptible): 4 µg/mL
- MIC (A. baumannii isolates [1]; A. baumannii 674340, susceptible): 1 µg/mL
- MIC (A. baumannii isolates [1]; Acinetobacter baumannii, A. baumannii 441142, colistin-resistant, read-out: MIC): 4 µg/mL
- MIC (A. baumannii isolates [1]; Acinetobacter baumannii, A. baumannii 441160, colistin-resistant, read-out: MIC): 8 µg/mL
- MIC (A. baumannii isolates [1]; Acinetobacter baumannii, A. baumannii 463996, colistin-resistant, read-out: MIC): 4 µg/mL
- MIC (A. baumannii isolates [1]; Acinetobacter baumannii, A. baumannii 466936, colistin-resistant, read-out: MIC): 8 µg/mL
- MIC (A. baumannii isolates [1]; Acinetobacter baumannii, A. baumannii 517303, colistin-resistant, read-out: MIC): 4 µg/mL
- MIC (A. baumannii isolates [1]; Acinetobacter baumannii, A. baumannii 618649, meropenem-resistant, read-out: MIC): 2 µg/mL
- MIC (A. baumannii isolates [1]; Acinetobacter baumannii, A. baumannii 625917, meropenem-resistant, read-out: MIC): 4 µg/mL
- MIC (A. baumannii isolates [1]; Acinetobacter baumannii, A. baumannii 628760, susceptible, read-out: MIC): 2 µg/mL
- MIC (A. baumannii isolates [1]; Acinetobacter baumannii, A. baumannii 637723, amikacin-resistant, read-out: MIC): 2 µg/mL
- MIC (A. baumannii isolates [1]; Acinetobacter baumannii, A. baumannii 638115, amikacin-resistant, read-out: MIC): 4 µg/mL
- MIC (A. baumannii isolates [1]; Acinetobacter baumannii, A. baumannii 650216, meropenem-resistant, read-out: MIC): 8 µg/mL
- MIC (A. baumannii isolates [1]; Acinetobacter baumannii, A. baumannii 655932, amikacin-resistant, read-out: MIC): 4 µg/mL
- MIC (A. baumannii isolates [1]; Acinetobacter baumannii, A. baumannii 661954, amikacin-resistant, read-out: MIC): 4 µg/mL
- MIC (A. baumannii isolates [1]; Acinetobacter baumannii, A. baumannii 667848, meropenem-resistant, read-out: MIC): 4 µg/mL
- MIC (A. baumannii isolates [1]; Acinetobacter baumannii, A. baumannii 670348, susceptible, read-out: MIC): 2 µg/mL
- MIC (A. baumannii isolates [1]; Acinetobacter baumannii, A. baumannii 671050, meropenem-resistant, read-out: MIC): 4 µg/mL
- MIC (A. baumannii isolates [1]; Acinetobacter baumannii, A. baumannii 672190, susceptible, read-out: MIC): 8 µg/mL
- MIC (A. baumannii isolates [1]; Acinetobacter baumannii, A. baumannii 674340, susceptible, read-out: MIC): 2 µg/mL
- Time to kill 99.9% (A. baumannii isolates [2]; AMK-R-1, 1xMIC): >24 h
- Time to kill 99.9% (A. baumannii isolates [2]; AMK-R-1, 4xMIC): >24 h
- Time to kill 99.9% (A. baumannii isolates [2]; AMK-R-2, 1xMIC): >24 h
- Time to kill 99.9% (A. baumannii isolates [2]; AMK-R-2, 4xMIC): >24 h
- Time to kill 99.9% (A. baumannii isolates [2]; AMK-R-3, 1xMIC): >24 h
- Time to kill 99.9% (A. baumannii isolates [2]; AMK-R-3, 4xMIC): >24 h
- MIC (A. baumannii isolates [2]; isolate AMK-R-1): 4 µg/mL
- MIC (A. baumannii isolates [2]; isolate AMK-R-2): 4 µg/mL
- MIC (A. baumannii isolates [2]; isolate AMK-R-3): 2 µg/mL
- MIC (A. baumannii isolates [2]; isolate COL-R-1): 8 µg/mL
- MIC (A. baumannii isolates [2]; isolate COL-R-2): 4 µg/mL
- MIC (A. baumannii isolates [2]; isolate COL-R-3): 16 µg/mL
- MIC (A. baumannii isolates [2]; isolate MPM-R-1): 8 µg/mL
- MIC (A. baumannii isolates [2]; isolate MPM-R-2): 4 µg/mL
- MIC (A. baumannii isolates [2]; isolate MPM-R-3): 4 µg/mL
- MIC (A. baumannii isolates [2]; isolate Sus-1): 1 µg/mL
- MIC (A. baumannii isolates [2]; isolate Sus-2): 2 µg/mL
- MIC (A. baumannii isolates [2]; isolate Sus-3): 8 µg/mL
- MIC (A. baumannii isolates [2]; isolate printed MPM-R-1 (second such line of Table 8, r14)): 4 µg/mL
- Time to kill 99.9% (A. baumannii isolates [2]; COL-R-1, 1xMIC): >24 h
- Time to kill 99.9% (A. baumannii isolates [2]; COL-R-1, 4xMIC): >24 h
- Time to kill 99.9% (A. baumannii isolates [2]; COL-R-2, 1xMIC): >24 h
- Time to kill 99.9% (A. baumannii isolates [2]; COL-R-2, 4xMIC): >24 h
- Time to kill 99.9% (A. baumannii isolates [2]; COL-R-3, 1xMIC): >24 h
- Time to kill 99.9% (A. baumannii isolates [2]; COL-R-3, 4xMIC): >24 h
- Time to kill 99.9% (A. baumannii isolates [2]; MPM-R-1 (second line, Table 8 r14), 1xMIC): >24 h
- Time to kill 99.9% (A. baumannii isolates [2]; MPM-R-1 (second line, Table 8 r14), 4xMIC): >24 h
- Time to kill 99.9% (A. baumannii isolates [2]; MPM-R-1, 1xMIC): >24 h
- Time to kill 99.9% (A. baumannii isolates [2]; MPM-R-1, 4xMIC): >24 h
- Time to kill 99.9% (A. baumannii isolates [2]; MPM-R-2, 1xMIC): >24 h
- Time to kill 99.9% (A. baumannii isolates [2]; MPM-R-2, 4xMIC): >24 h
- Time to kill 99.9% (A. baumannii isolates [2]; MPM-R-3, 1xMIC): >24 h
- Time to kill 99.9% (A. baumannii isolates [2]; MPM-R-3, 4xMIC): >24 h
- Time to kill 99.9% (A. baumannii isolates [2]; Sus-1, 1xMIC): >24 h
- Time to kill 99.9% (A. baumannii isolates [2]; Sus-1, 4xMIC): >24 h
- Time to kill 99.9% (A. baumannii isolates [2]; Sus-2, 1xMIC): >24 h
- Time to kill 99.9% (A. baumannii isolates [2]; Sus-2, 4xMIC): >24 h
- Time to kill 99.9% (A. baumannii isolates [2]; Sus-3, 1xMIC): >24 h
- Time to kill 99.9% (A. baumannii isolates [2]; Sus-3, 4xMIC): >24 h
- effect in time-kill studies when tested alone (A. baumannii isolates [2]; alone at 1× or 4×MIC): bacteriostatic
- effect in time-kill study when tested alone (A. baumannii SAN strain): bacteriostatic
- No. of survivors (A. baumannii RCH-69; 0 h after RCH strain infection): 13
- survivors (%) (A. baumannii RCH-69; 0 h after RCH strain infection): 100%
- No. of survivors (A. baumannii RCH-69; [3]): 5
- survivors (%) (A. baumannii RCH-69; [3]): 38%
- No. of survivors (A. baumannii RCH-69; 48 h after RCH strain infection): 0
- No. of survivors (A. baumannii RCH-69; 72 h after RCH strain infection): 0
- No. of survivors (A. baumannii RCH-69; 96 h after RCH strain infection): 0
